Measurements reported in patent US6355633B1, “Aryl sulfonic acids and derivatives as FSH antagonists” (American Home Products Corporation, priority 1999, dated 2002).

biological target: T1, FSH receptor (Rattus norvegicus, UniProt P20395); test: In Vitro Bio-test Procedure of Agonists and Antagonists to the FSH Receptor Using Primary Cultures of Rat Granulosa (estradiol secretion); format: cell-based; conditions: not given
T1 construct: endogenous in cells; host or cells: primary ovarian granulosa cells of DES-treated immature Sprague-Dawley rats
T1 sequence (P20395 18-692): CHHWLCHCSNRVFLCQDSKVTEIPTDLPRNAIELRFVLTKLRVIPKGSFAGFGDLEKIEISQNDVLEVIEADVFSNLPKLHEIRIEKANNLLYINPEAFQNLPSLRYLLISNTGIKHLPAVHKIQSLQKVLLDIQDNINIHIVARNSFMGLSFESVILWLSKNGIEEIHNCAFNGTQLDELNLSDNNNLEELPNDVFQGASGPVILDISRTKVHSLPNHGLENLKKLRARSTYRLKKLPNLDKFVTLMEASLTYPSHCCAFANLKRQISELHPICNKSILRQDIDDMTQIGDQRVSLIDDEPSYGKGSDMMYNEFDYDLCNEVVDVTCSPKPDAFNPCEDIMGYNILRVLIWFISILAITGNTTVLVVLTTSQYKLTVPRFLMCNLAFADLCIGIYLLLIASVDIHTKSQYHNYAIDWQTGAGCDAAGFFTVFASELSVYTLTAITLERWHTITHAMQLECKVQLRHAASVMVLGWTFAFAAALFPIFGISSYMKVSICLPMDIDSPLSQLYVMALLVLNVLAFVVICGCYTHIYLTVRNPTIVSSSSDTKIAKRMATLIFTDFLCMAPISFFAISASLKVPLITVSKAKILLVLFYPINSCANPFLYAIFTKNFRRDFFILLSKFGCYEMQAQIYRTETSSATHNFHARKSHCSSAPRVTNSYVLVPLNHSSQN
Method: In Vitro Bio-test Procedure of Agonists and Antagonists to the FSH Receptor Using Primary Cultures of Rat Granulosa
Materials and Methods: Reagents
The concentration of vehicle was maintained constant throughout all dilutions.
Preparation of Granulosa Cells: Twenty-four day-old immature female Sprague-Dawley rats (Charles River Laboratories, Wilmington, Mass.) were used as donors for ovarian granulosa cells. The animals were treated by single daily injections of 100 mg/kg diethylstilbestrol (DES) in oil over three days. On the fourth day, animals were sacrificed by CO2 asphyxiation and the ovaries were removed. Ovaries were washed three times in 50 mL of sterile HEPES-buffered saline (HBS, pH 7.4). Granulosa cells were harvested by incubating ovaries in a hypertonic medium consisting of serum-free McCoy*s SA medium (Gibco Life Sciences, Grand Island, N.Y.) supplemented with […], […], 5 ng/mL sodium selenite (ITS, Sigma Chemical Co., St. Louis Mo.), […] L-glutamine, 100 nM testosterone, 100 nM DES and 100 U/mL penicillin/[…]/250 ng/mL amphotericin B (antibiotic/antimycotic, Gibco) containing 0.5 M sucrose and 0.1 mM EGTA. Ovaries were then incubated for 45 min. at 37 C. in a humidified incubator gassed with 95% air/5% CO2. They were washed 3 times with 10 mL isotonic medium (hypertonic medium without sucrose and EGTA) and incubated another 45 min. in isotonic medium at 37 C. Granulosa cells were harvested by squeezing the ovaries between two sterile glass microscope slides. Isolated granulosa cells were then placed in an 50 mL centrifuge tube and washed two times by the addition of 50 mL serum-free McCoy*s 5A medium followed by centrifugation at 700×g for 5 min. After the final spin, the cells were resuspended by gentle trituration in 25 mL serum-free medium, an aliquot counted in a hemocytometer and viability estimated by trypan blue exclusion. Cells were plated into 24-well Nunc tissue culture plates at 200,000 viable cells/well in […].
Procedure: Following plating of the cells, the plates are incubated at 37 C for 2-4 hours at which time the treatments are added to the cells. Treatments are added to the wells at 2× the desired final concentration in […] in isotonic medium containing 0.2% BSA. The cells are incubated at 37 C. for 72 h. At the end of the incubation period, the medium is removed from the wells and tested for estradiol concentration by radioimmunoassay.
Experimental Groups: In the 24-well format, the plate was divided into 6 columns of 4 wells/column. One plate per compound was used to test either agonist or antagonist modes. […]
Four different doses of compound were tested in the antagonist mode. In addition, one column was used for a negative control (vehicle alone) and the other remaining column for a positive control (ED50 of FSH alone).
The doses of compound chosen to test were extrapolated from the initial functional screening process. Along with the plates testing compounds, another plate was run in parallel using a dose-response of FSH (0.01-100 ng/mL) as a positive control.
Analysis of Results: Estradiol was expressed as pg/mL. Estradiol secretion in agonist mode, or the ability of the compound to inhibit FSH-induced estradiol secretion in antagonist, was compared to the appropriate negative and positive controls. Data were analyzed statistically by analysis of variance with Huber weighting of log transformed data. Paired differences were determined using the LSD test
Reference Compounds: Test compounds were compared to the effect of purified or recombinant human FSH.

Row | Compound | IC50 [nM]
1 | COCCOCCOc1ccc(C(=O)Nc2ccc(/C=C/c3ccc(NC(=O)c4ccc(OCCOCCOC)c(S(=O)(=O)N5CCOCC5)c4)cc3S(=O)(=O)O)c(S(=O)(=O)O)c2)cc1S(=O)(=O)N1CCOCC1 [Example 30a, 2,2′-[(E)-1,2-Ethenediyl]bis[5-[[4-[2-(2-methoxyethoxy)ethoxy]-3-(4-morpholinylsulfonyl)benzoyl]amino]benzenesulfonic Acid]] | 1900
2 | CS(=O)(=O)c1ccc(C(=O)Nc2ccc(/C=C/c3ccc(NC(=O)c4ccc(S(C)(=O)=O)c(S(=O)(=O)N5CCOCC5)c4)cc3S(=O)(=O)O)c(S(=O)(=O)O)c2)cc1S(=O)(=O)N1CCOCC1 [Example 30d, 2,2′-[(E)-1,2-Ethenediyl]bis[5-[[4-(methylsulfonyl)-3-(4-morpholinylsulfonyl)benzoyl]amino]benzenesulfonic Acid]] | 2800
3 | CSc1ccc(C(=O)Nc2ccc(/C=C/c3ccc(NC(=O)c4ccc(S(C)(=O)=O)c([N+](=O)[O-])c4)cc3S(=O)(=O)O)c(S(=O)(=O)O)c2)cc1S(=O)(=O)N1CCOCC1 [Example 30e] | 1800
4 | COCCNS(=O)(=O)c1cc(C(=O)Nc2ccc(/C=C/c3ccc(NC(=O)c4ccc(S(C)(=O)=O)c([N+](=O)[O-])c4)cc3S(=O)(=O)O)c(S(=O)(=O)O)c2)ccc1OC [Example 30f] | 8000
5 | COc1ccc(C(=O)Nc2ccc(/C=C/c3ccc(NC(=O)c4ccc(OC)c(S(=O)(=O)N5CCS(=O)(=O)CC5)c4)cc3S(=O)(=O)O)c(S(=O)(=O)O)c2)cc1S(=O)(=O)N1CCS(=O)(=O)CC1 [Example 30k, 2,2′-[(E)-1,2-Ethenediyl]bis[5-[[3-[(1,1-dioxido-4-thiomorpholinyl)sulfonyl]-4-methoxybenzoyl]amino]benzenesulfonic Acid]] | 3100
6 | COCCNS(=O)(=O)c1cc(C(=O)Nc2ccc(/C=C/c3ccc(NC(=O)c4ccc(OC)c(S(=O)(=O)NCCOC)c4)cc3S(=O)(=O)O)c(S(=O)(=O)O)c2)ccc1OC [Example 30m, 2,2′-[(E)-1,2-Ethenediyl]bis[5-[[4-methoxy-3-[[(2-methoxyethyl)amino]sulfonyl]benzoyl]amino]benzenesulfonic Acid]] | 6700
7 | CS(=O)(=O)c1ccc(C(=O)Nc2ccc(/C=C/c3ccc(NC(=O)c4ccc(S(C)(=O)=O)cc4)cc3S(=O)(=O)O)c(S(=O)(=O)O)c2)cc1 [Example 30q, 2,2′-[(E)-1,2-Ethenediyl]bis[5-[[4-(methylsulfonyl)benzoyl]amino]benzenesulfonic Acid]] | 1300
8 | O=C(Nc1ccc(/C=C/c2ccc(NC(=O)c3ccc(OC4CCOCC4)c(S(=O)(=O)N4CCOCC4)c3)cc2S(=O)(=O)O)c(S(=O)(=O)O)c1)c1ccc(OC2CCOCC2)c(S(=O)(=O)N2CCOCC2)c1 [Example 30r, 2,2′-[(E)-1,2-Ethenediyl]bis[5-[[3-(4-morpholinylsulfonyl)-4-[(tetrahydro-2H-pyran-4-yl)oxy]benzoyl]amino]benzenesulfonic Acid]] | 1100
9 | COc1ccc(C(=O)Nc2ccc(/C=C/c3ccc(NC(=O)c4ccc(OC)c(S(=O)(=O)N5CCOCC5)c4)cc3S(=O)(=O)O)c(S(=O)(=O)O)c2)cc1S(=O)(=O)N1CCOCC1 [Example 30s, 2,2′-[(E)-1,2-Ethenediyl]bis[5-[[4-methoxy-3-(4-morpholinylsulfonyl)benzoyl]amino]benzenesulfonic Acid]] | 1200
10 | COCCOc1ccc(C(=O)Nc2ccc(/C=C/c3ccc(NC(=O)c4ccc(OCCOC)c(S(=O)(=O)N5CCOCC5)c4)cc3S(=O)(=O)O)c(S(=O)(=O)O)c2)cc1S(=O)(=O)N1CCOCC1 [Example 30t, 2,2′-[(E)-1,2-Ethenediyl]bis[5-[[4-(2-methoxyethoxy)-3-(4-morpholinylsulfony)benzoyl]amino]benzenesulfonic Acid]] | 1400
11 | CCS(=O)(=O)c1ccc(C(=O)Nc2ccc(/C=C/c3ccc(NC(=O)c4ccc(S(=O)(=O)CC)cc4)cc3S(=O)(=O)O)c(S(=O)(=O)O)c2)cc1 [Example 32f, 2,2′-[(E)-1,2-Ethenediyl]bis[5-[[4-(ethylsulfonyl)benzoyl]amino]benzenesulfonic Acid]] | 2800
12 | COc1ccc(C(=O)Nc2ccc(/C=C/c3ccc(NC(=O)c4ccc(OC)c(S(=O)(=O)N5CCSCC5)c4)cc3S(=O)(=O)O)c(S(=O)(=O)O)c2)cc1S(=O)(=O)N1CCSCC1 [Example 33d, 2,2′-[(E)-1,2-Ethenediyl]bis[5-[[4-methoxy-3-(4-thiomorpholinylsulfonyl)benzoyl]amino]benzenesulfonic Acid]] | 10000
13 | COc1ccc(C(=O)Nc2ccc(/C=C/c3ccc(NC(=O)c4ccc(OC)c(S(=O)(=O)N5CCCC5)c4)cc3S(=O)(=O)O)c(S(=O)(=O)O)c2)cc1S(=O)(=O)N1CCCC1 [Example 33e, 2,2′-[(E)-1,2-Ethenediyl]bis[5-[[4-methoxy-3-(1-pyrrolidinylsulfonyl)benzoyl]amino]benzenesulfonic Acid]] | 2100
14 | COc1ccc(C(=O)Nc2ccc(/C=C/c3ccc(NC(=O)c4ccc(OC)c(S(=O)(=O)N5CCN(C(C)=O)CC5)c4)cc3S(=O)(=O)O)c(S(=O)(=O)O)c2)cc1S(=O)(=O)N1CCN(C(C)=O)CC1 [Example 34a, 2,2′-[(E)-1,2-Ethenediyl]bis[5-[[3-[(4-acetyl-1-piperazinyl)sulfonyl]-4-methoxybenzoyl]amino]benzenesulfonic Acid]] | 57000
15 | COc1ccc(C(=O)Nc2ccc(/C=C/c3ccc(NC(=O)c4ccc(OC)c(S(=O)(=O)N5CCN(C=O)CC5)c4)cc3S(=O)(=O)O)c(S(=O)(=O)O)c2)cc1S(=O)(=O)N1CCN(C=O)CC1 [Example 34b, 2,2′-[(E)-1,2-Ethenediyl]bis[5-[[3-[(4-formyl-1-piperazinyl)sulfonyl]-4-methoxybenzoyl]amino]benzenesulfonic Acid]] | 4900
16 | COc1ccc(C(=O)Nc2ccc(CCc3ccc(NC(=O)c4ccc(S(C)(=O)=O)cc4)cc3S(=O)(=O)O)c(S(=O)(=O)O)c2)cc1S(=O)(=O)N1CCOCC1 [Example 43a, 5-[[4-Methoxy-3-(4-morpholinylsulfonyl)benzoyl]amino]-2-[2-[4-[[4-(methylsulfonyl)benzoyl]amino]-2-sulfophenyl]ethyl]benzenesulfonic Acid] | 17000

same assay, conditions: antagonist mode, inhibition of FSH-induced estradiol secretion (ED50 of FSH, 0.5 ng/mL), rat granulosa cells, 72 h

Row | Compound | IC50 [nM]
17 | 2,2′-[(E)-1,2-Ethenediyl]bis[5-[[4-(methylthio)-3-(4-morpholinylsulfonyl)benzoyl]amino]benzenesulfonic Acid] [Example 30b] | 1500
18 | CS(=O)(=O)c1ccc(C(=O)Nc2ccc(/C=C/c3ccc(NC(=O)c4ccc(S(C)(=O)=O)c([N+](=O)[O-])c4)cc3S(=O)(=O)O)c(S(=O)(=O)O)c2)cc1[N+](=O)[O-] [Example 30c, 2.2′-[(E)-1,2-Ethenediyl]bis[5-[[(4-methylsulfonyl)-3-(nitro)-benzoyl]amino]benzenesulfonic Acid]] | 3800
19 | COc1ccc(C(=O)Nc2ccc(/C=C/c3ccc(NC(=O)c4ccc(S(C)(=O)=O)cc4)cc3S(=O)(=O)O)c(S(=O)(=O)O)c2)cc1S(=O)(=O)N1CCOCC1 [Example 30g] | 2400
